Measured values reported in ChEMBL document CHEMBL1201862, “PubChem BioAssay data set” (2004).
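Five compound concentrations were applied to cells in 96-well plates for 48 hours; endpoints were derived by simple linear interpolation of the resulting dose-response curve. The concentration for 50% growth inhibition is given as GI50.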 The source made the active and inactive calls. Rule as the data show it: active = GI50 up to about 1.1 µM and inactive = higher.

Legend:
Experiment in all cases: growth of human tumour cells (NCI), 48 h
NCI-H226 = system: NCI-H226
RPMI-8226 = system: RPMI-8226
SW-620 = system: SW-620
UACC-257 = system: UACC-257
U-251 = system: U-251
OVCAR-3 = system: OVCAR-3
EKVX = system: EKVX
A549 = system: A549
M14 = system: M14
HCT-15 = system: HCT-15
OVCAR-8 = system: OVCAR-8
SR = system: SR
HT-29 = system: HT-29
SK-OV-3 = system: SK-OV-3
RXF 393 = system: RXF 393
CCRF-CEM = system: CCRF-CEM
SF-539 = system: SF-539
DMS-114 = system: DMS-114
NCI-H522 = system: NCI-H522
CAKI-1 = system: CAKI-1

SMILES	GI50 (NCI-H226)	GI50 (RPMI-8226)	GI50 (SW-620)	GI50 (UACC-257)	GI50 (U-251)	GI50 (OVCAR-3)	GI50 (EKVX)	GI50 (A549)	GI50 (M14)	GI50 (HCT-15) [µM]	GI50 (OVCAR-8)	GI50 (SR)	GI50 (HT-29)	GI50 (SK-OV-3)	GI50 (RXF 393)	GI50 (CCRF-CEM)	GI50 (SF-539)	GI50 (DMS-114)	GI50 (NCI-H522)	GI50 (CAKI-1)
COc1ccc(OCC(=O)O)c2c1CCCC2=O	64.6 µM (inactive)	> 100 µM (inactive)	> 100 µM (inactive)	> 100 µM (inactive)	> 100 µM (inactive)	> 100 µM (inactive)	> 100 µM (inactive)	> 100 µM (inactive)	> 100 µM (inactive)	> 100	> 100 µM (inactive)	> 100 µM (inactive)	> 100 µM (inactive)	> 100 µM (inactive)	> 100 µM (inactive)	> 100 µM (inactive)	> 100 µM (inactive)	> 100 µM (inactive)	> 100 µM (inactive)	
CSc1nc(NC2OC(COC(C)=O)C(OC(C)=O)C(OC(C)=O)C2OC(C)=O)c(-c2csc(N)n2)c(=O)n1C (stereo unspecified)	15.7 µM (inactive)	> 100 µM (inactive)	> 100 µM (inactive)	32.9 µM (inactive)	34.3 µM (inactive)	54 µM (inactive)		43.4 µM (inactive)	39.1 µM (inactive)	97.1	26.1 µM (inactive)	> 100 µM (inactive)	> 100 µM (inactive)	50.7 µM (inactive)		> 100 µM (inactive)	25.2 µM (inactive)	34.8 µM (inactive)	56.2 µM (inactive)	31.3 µM (inactive)
CC1=C(C(=O)Nc2cc(=O)n(C)c(=O)n2C)C(c2ccco2)C(C(=O)Nc2cc(=O)n(C)c(=O)n2C)=C(C)N1	> 100 µM (inactive)	> 100 µM (inactive)	> 100 µM (inactive)	> 100 µM (inactive)	> 100 µM (inactive)	> 100 µM (inactive)	> 100 µM (inactive)	> 100 µM (inactive)	> 100 µM (inactive)		> 100 µM (inactive)		> 100 µM (inactive)		> 100 µM (inactive)	> 100 µM (inactive)	> 100 µM (inactive)	> 100 µM (inactive)	> 100 µM (inactive)	> 100 µM (inactive)
COC(=O)C(=O)C(C#N)c1cccc2ccccc12 (stereo unspecified)	> 100 µM (inactive)	> 100 µM (inactive)	> 100 µM (inactive)	> 100 µM (inactive)	> 100 µM (inactive)	> 100 µM (inactive)	> 100 µM (inactive)	> 100 µM (inactive)	> 100 µM (inactive)	> 100	> 100 µM (inactive)	> 100 µM (inactive)	> 100 µM (inactive)	> 100 µM (inactive)		> 100 µM (inactive)	> 100 µM (inactive)	> 100 µM (inactive)	> 100 µM (inactive)	> 100 µM (inactive)
COc1cc2c(c(OC)c1)C1(CC(CC#N)C2)SCCS1 (stereo unspecified)	> 100 µM (inactive)	> 100 µM (inactive)	> 100 µM (inactive)	> 100 µM (inactive)	> 100 µM (inactive)	> 100 µM (inactive)		> 100 µM (inactive)	> 100 µM (inactive)	> 100	> 100 µM (inactive)			> 100 µM (inactive)	> 100 µM (inactive)	> 100 µM (inactive)	> 100 µM (inactive)	> 100 µM (inactive)	< 0.01 µM (active)	> 100 µM (inactive)
NCCCCN(CCCN)/[N+]([O-])=N\O	> 100 µM (inactive)	> 100 µM (inactive)	> 100 µM (inactive)	> 100 µM (inactive)	> 100 µM (inactive)	> 100 µM (inactive)		> 100 µM (inactive)	> 100 µM (inactive)	> 100	> 100 µM (inactive)	> 100 µM (inactive)	> 100 µM (inactive)	> 100 µM (inactive)	> 100 µM (inactive)	> 100 µM (inactive)	> 100 µM (inactive)	> 100 µM (inactive)	> 100 µM (inactive)	> 100 µM (inactive)
CC(O)C(N/C=C1/N=C(c2ccccc2)OC1=O)C(=O)O (stereo unspecified)	> 100 µM (inactive)	> 100 µM (inactive)	> 100 µM (inactive)	> 100 µM (inactive)	> 100 µM (inactive)	> 100 µM (inactive)	> 100 µM (inactive)	> 100 µM (inactive)	> 100 µM (inactive)	10	> 100 µM (inactive)		> 100 µM (inactive)	> 100 µM (inactive)	> 100 µM (inactive)	> 100 µM (inactive)	> 100 µM (inactive)	> 100 µM (inactive)	> 100 µM (inactive)	> 100 µM (inactive)
COC(=O)/C=C/C1C2C3(CCC(C)C12C)OCCS3 (stereo unspecified)	> 100 µM (inactive)		> 100 µM (inactive)	> 100 µM (inactive)	> 100 µM (inactive)	> 100 µM (inactive)	> 100 µM (inactive)	> 100 µM (inactive)	> 100 µM (inactive)	> 100	> 100 µM (inactive)	43.1 µM (inactive)	> 100 µM (inactive)	> 100 µM (inactive)	> 100 µM (inactive)	34.3 µM (inactive)	> 100 µM (inactive)	> 100 µM (inactive)	> 100 µM (inactive)	
